± gives the expanded uncertainty stated by the source.
Assay: xn = mol fraction of the nth substance listed
Conditions: 100 kPa, Liquid; for viscosity: Falling or rolling sphere viscometry; for mass density: Vibrating tube method

CC12CC3CC(C1)CC(C)(C3)C2 [1,3-dimethyladamantane] + C1C[C@@H]2[C@H]3CC[C@H](C3)[C@@H]2C1
Conditions	mass density [kg/m3]	viscosity [mPa·s]
293.15 K, x2 = 0.0998	905.2 ± 0.55	3.715 ± 0.079
293.15 K, x2 = 0.2023	908.96 ± 0.55	3.67 ± 0.078
293.15 K, x2 = 0.2984	912.36 ± 0.56	3.623 ± 0.078
293.15 K, x2 = 0.3996	915.9 ± 0.57	3.555 ± 0.077
293.15 K, x2 = 0.4998	919.37 ± 0.58	3.474 ± 0.075
293.15 K, x2 = 0.5973	922.65 ± 0.59	3.388 ± 0.074
293.15 K, x2 = 0.7005	926.17 ± 0.61	3.293 ± 0.072
293.15 K, x2 = 0.8026	929.43 ± 0.63	3.2 ± 0.071
293.15 K, x2 = 0.9	932.64 ± 0.66	3.114 ± 0.069
298.15 K, x2 = 0.0998	901.59 ± 0.55	3.316 ± 0.071
298.15 K, x2 = 0.2023	905.3 ± 0.55	3.277 ± 0.07
298.15 K, x2 = 0.2984	908.68 ± 0.56	3.238 ± 0.069
298.15 K, x2 = 0.3996	912.18 ± 0.56	3.181 ± 0.068
298.15 K, x2 = 0.4998	915.61 ± 0.57	3.116 ± 0.067
298.15 K, x2 = 0.5973	918.86 ± 0.59	3.045 ± 0.066
298.15 K, x2 = 0.7005	922.34 ± 0.61	2.965 ± 0.065
298.15 K, x2 = 0.8026	925.59 ± 0.63	2.885 ± 0.064
298.15 K, x2 = 0.9	928.76 ± 0.66	2.814 ± 0.063
303.15 K, x2 = 0.0998	897.97 ± 0.55	2.977 ± 0.063
303.15 K, x2 = 0.2023	901.64 ± 0.55	2.947 ± 0.063
303.15 K, x2 = 0.2984	904.99 ± 0.55	2.915 ± 0.062
303.15 K, x2 = 0.3996	908.45 ± 0.56	2.867 ± 0.062
303.15 K, x2 = 0.4998	911.85 ± 0.57	2.81 ± 0.061
303.15 K, x2 = 0.5973	915.06 ± 0.59	2.75 ± 0.06
303.15 K, x2 = 0.7005	918.51 ± 0.6	2.68 ± 0.059
303.15 K, x2 = 0.8026	921.77 ± 0.63	2.618 ± 0.058
303.15 K, x2 = 0.9	924.88 ± 0.65	2.555 ± 0.057
308.15 K, x2 = 0.0998	894.36 ± 0.54	2.687 ± 0.057
308.15 K, x2 = 0.2023	897.98 ± 0.55	2.666 ± 0.057
308.15 K, x2 = 0.2984	901.29 ± 0.55	2.637 ± 0.057
308.15 K, x2 = 0.3996	904.71 ± 0.56	2.601 ± 0.056
308.15 K, x2 = 0.4998	908.08 ± 0.57	2.547 ± 0.055
308.15 K, x2 = 0.5973	911.26 ± 0.58	2.495 ± 0.054
308.15 K, x2 = 0.7005	914.67 ± 0.6	2.438 ± 0.053
308.15 K, x2 = 0.8026	917.91 ± 0.62	2.385 ± 0.053
308.15 K, x2 = 0.9	921 ± 0.65	2.332 ± 0.052
313.15 K, x2 = 0.0998	890.74 ± 0.54	2.44 ± 0.052
313.15 K, x2 = 0.2023	894.32 ± 0.55	2.422 ± 0.052
313.15 K, x2 = 0.2984	897.59 ± 0.55	2.394 ± 0.051
313.15 K, x2 = 0.3996	900.98 ± 0.56	2.363 ± 0.051
313.15 K, x2 = 0.4998	904.31 ± 0.57	2.319 ± 0.05
313.15 K, x2 = 0.5973	907.45 ± 0.58	2.275 ± 0.05
313.15 K, x2 = 0.7005	910.84 ± 0.6	2.227 ± 0.049
313.15 K, x2 = 0.8026	914.04 ± 0.62	2.179 ± 0.048
313.15 K, x2 = 0.9	917.12 ± 0.65	2.136 ± 0.048
318.15 K, x2 = 0.0998	887.12 ± 0.54	2.222 ± 0.047
318.15 K, x2 = 0.2023	890.65 ± 0.54	2.209 ± 0.047
318.15 K, x2 = 0.2984	893.89 ± 0.55	2.185 ± 0.047
318.15 K, x2 = 0.3996	897.24 ± 0.56	2.157 ± 0.046
318.15 K, x2 = 0.4998	900.53 ± 0.57	2.121 ± 0.046
318.15 K, x2 = 0.5973	903.65 ± 0.58	2.081 ± 0.045
318.15 K, x2 = 0.7005	906.99 ± 0.6	2.042 ± 0.045
318.15 K, x2 = 0.8026	910.17 ± 0.62	2.002 ± 0.044
318.15 K, x2 = 0.9	913.23 ± 0.65	1.964 ± 0.044
323.15 K, x2 = 0.0998	883.5 ± 0.54	2.032 ± 0.043
323.15 K, x2 = 0.2023	886.99 ± 0.54	2.02 ± 0.043
323.15 K, x2 = 0.2984	890.18 ± 0.55	2.001 ± 0.043
323.15 K, x2 = 0.3996	893.49 ± 0.55	1.978 ± 0.043
323.15 K, x2 = 0.4998	896.75 ± 0.56	1.946 ± 0.042
323.15 K, x2 = 0.5973	899.83 ± 0.58	1.915 ± 0.042
323.15 K, x2 = 0.7005	903.15 ± 0.59	1.879 ± 0.041
323.15 K, x2 = 0.8026	906.3 ± 0.62	1.844 ± 0.041
323.15 K, x2 = 0.9	909.33 ± 0.64	1.812 ± 0.04
328.15 K, x2 = 0.0998	879.87 ± 0.54	1.867 ± 0.04
328.15 K, x2 = 0.2023	883.31 ± 0.54	1.857 ± 0.04
328.15 K, x2 = 0.2984	886.47 ± 0.55	1.839 ± 0.039
328.15 K, x2 = 0.3996	889.74 ± 0.55	1.819 ± 0.039
328.15 K, x2 = 0.4998	892.97 ± 0.56	1.794 ± 0.039
328.15 K, x2 = 0.5973	896.02 ± 0.58	1.764 ± 0.038
328.15 K, x2 = 0.7005	899.3 ± 0.59	1.734 ± 0.038
328.15 K, x2 = 0.8026	902.43 ± 0.62	1.704 ± 0.038
328.15 K, x2 = 0.9	905.43 ± 0.64	1.677 ± 0.037
333.15 K, x2 = 0.0998	876.23 ± 0.53	1.719 ± 0.037
333.15 K, x2 = 0.2023	879.65 ± 0.54	1.714 ± 0.037
333.15 K, x2 = 0.2984	882.76 ± 0.54	1.696 ± 0.036
333.15 K, x2 = 0.3996	885.99 ± 0.55	1.679 ± 0.036
333.15 K, x2 = 0.4998	889.18 ± 0.56	1.657 ± 0.036
333.15 K, x2 = 0.5973	892.2 ± 0.57	1.631 ± 0.036
333.15 K, x2 = 0.7005	895.45 ± 0.59	1.605 ± 0.035
333.15 K, x2 = 0.8026	898.54 ± 0.61	1.58 ± 0.035
333.15 K, x2 = 0.9	901.52 ± 0.64	1.557 ± 0.035

Source: the NIST ThermoML archive (doi:10.1021/acs.jced.9b00074)
